7 molecules from ChEMBL document CHEMBL5465560, “Selectivity Literature for EUbOPEN Chemogenomic Library” (2024) can be followed below.

Where only a bound is given, the exact number is not on record here.

Test [1] concerns the target Ribosomal protein S6 kinase alpha-2 (Homo sapiens) (UniProt Q15349). Nature of the test: Selectivity interaction (KinomeScan (DiscoverX)) EUB0000607a RPS6KA2. The following applies: at 10 µM.
The target of test [2] is T1, Dual serine/threonine and tyrosine protein kinase (Homo sapiens) (UniProt Q6XUX3).
T1 sequence (whole entry): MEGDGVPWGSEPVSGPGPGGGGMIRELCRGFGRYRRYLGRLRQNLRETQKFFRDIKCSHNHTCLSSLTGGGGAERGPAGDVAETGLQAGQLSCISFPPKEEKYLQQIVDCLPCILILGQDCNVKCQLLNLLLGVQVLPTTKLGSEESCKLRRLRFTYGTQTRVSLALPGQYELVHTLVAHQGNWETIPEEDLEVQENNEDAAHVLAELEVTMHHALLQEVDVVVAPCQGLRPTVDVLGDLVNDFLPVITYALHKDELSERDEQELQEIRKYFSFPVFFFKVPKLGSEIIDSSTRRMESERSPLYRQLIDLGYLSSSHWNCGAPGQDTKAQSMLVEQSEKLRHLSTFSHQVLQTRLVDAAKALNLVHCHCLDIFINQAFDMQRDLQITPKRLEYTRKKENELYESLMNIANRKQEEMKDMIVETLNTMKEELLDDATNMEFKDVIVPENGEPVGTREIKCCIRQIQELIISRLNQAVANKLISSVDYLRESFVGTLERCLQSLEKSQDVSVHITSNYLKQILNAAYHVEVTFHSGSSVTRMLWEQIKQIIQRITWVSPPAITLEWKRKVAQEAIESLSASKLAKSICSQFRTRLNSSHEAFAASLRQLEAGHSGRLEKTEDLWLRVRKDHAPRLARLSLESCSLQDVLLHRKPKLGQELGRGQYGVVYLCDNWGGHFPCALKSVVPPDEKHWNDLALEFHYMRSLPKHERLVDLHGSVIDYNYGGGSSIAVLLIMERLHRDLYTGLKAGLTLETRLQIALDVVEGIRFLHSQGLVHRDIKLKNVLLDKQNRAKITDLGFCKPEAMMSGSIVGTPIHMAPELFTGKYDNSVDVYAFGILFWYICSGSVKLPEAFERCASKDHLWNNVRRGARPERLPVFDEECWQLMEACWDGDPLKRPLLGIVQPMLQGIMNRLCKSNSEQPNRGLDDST
The following applies: at 10 µM.

Test [3] has as its target Ribosomal protein S6 kinase beta-1 (Homo sapiens, UniProt P23443). Nature of the test: Selectivity interaction (Enyzmatic assay) EUB0000601a RPS6KB1.
For test [4], the target named is T2, Ephrin type-B receptor 3 (Homo sapiens) (UniProt P54753).
T2 sequence (whole entry): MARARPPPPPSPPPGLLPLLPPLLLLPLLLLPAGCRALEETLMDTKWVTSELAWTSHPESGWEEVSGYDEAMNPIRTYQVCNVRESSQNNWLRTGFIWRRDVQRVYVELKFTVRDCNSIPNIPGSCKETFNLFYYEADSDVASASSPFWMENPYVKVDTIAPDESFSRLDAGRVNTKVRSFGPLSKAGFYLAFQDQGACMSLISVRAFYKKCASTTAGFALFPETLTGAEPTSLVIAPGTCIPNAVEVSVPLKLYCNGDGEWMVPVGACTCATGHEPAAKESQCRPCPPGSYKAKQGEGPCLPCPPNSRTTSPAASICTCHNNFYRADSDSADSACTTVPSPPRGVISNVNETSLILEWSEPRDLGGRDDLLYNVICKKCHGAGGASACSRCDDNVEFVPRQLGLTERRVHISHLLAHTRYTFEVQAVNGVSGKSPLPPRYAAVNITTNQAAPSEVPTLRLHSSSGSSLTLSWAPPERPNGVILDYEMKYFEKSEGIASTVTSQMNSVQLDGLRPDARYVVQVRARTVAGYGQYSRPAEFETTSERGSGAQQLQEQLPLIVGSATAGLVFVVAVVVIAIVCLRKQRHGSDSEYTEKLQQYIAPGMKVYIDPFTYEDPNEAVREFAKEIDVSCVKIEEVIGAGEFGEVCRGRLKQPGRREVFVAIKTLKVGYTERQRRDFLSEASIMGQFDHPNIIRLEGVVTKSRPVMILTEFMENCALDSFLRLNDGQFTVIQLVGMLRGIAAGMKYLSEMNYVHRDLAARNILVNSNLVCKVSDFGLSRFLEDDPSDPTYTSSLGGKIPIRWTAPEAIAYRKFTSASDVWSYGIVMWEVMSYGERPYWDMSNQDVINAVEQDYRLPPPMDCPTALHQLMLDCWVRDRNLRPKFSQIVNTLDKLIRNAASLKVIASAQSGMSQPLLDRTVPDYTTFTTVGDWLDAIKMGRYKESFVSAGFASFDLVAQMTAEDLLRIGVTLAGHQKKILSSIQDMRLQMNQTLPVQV
Nature of the test: Selectivity interaction (ActivX KiNativ screen (kinase selectivity in THP-1 cell lysates)) EUB0000639a EPHB3. Type of test: subcellular. As to conditions: lysate.

Test [5] has as its target Ephrin type-A receptor 2 (Homo sapiens) (UniProt P29317). Nature of the test: Selectivity interaction (Millipore kinase profiler) EUB0000124b EPHA2. As to conditions: at 10 µM.
The target of test [6] is 5'-AMP-activated protein kinase catalytic subunit alpha-2 (Homo sapiens) (UniProt P54646). Nature of the test: Selectivity interaction (KinomeScan (DiscoverX)) EUB0001049a PRKAA2. The following applies: at 1 µM.
Chain of 5'-AMP-activated protein kinase catalytic subunit alpha-2 (Homo sapiens) (P54646 whole entry, looked up): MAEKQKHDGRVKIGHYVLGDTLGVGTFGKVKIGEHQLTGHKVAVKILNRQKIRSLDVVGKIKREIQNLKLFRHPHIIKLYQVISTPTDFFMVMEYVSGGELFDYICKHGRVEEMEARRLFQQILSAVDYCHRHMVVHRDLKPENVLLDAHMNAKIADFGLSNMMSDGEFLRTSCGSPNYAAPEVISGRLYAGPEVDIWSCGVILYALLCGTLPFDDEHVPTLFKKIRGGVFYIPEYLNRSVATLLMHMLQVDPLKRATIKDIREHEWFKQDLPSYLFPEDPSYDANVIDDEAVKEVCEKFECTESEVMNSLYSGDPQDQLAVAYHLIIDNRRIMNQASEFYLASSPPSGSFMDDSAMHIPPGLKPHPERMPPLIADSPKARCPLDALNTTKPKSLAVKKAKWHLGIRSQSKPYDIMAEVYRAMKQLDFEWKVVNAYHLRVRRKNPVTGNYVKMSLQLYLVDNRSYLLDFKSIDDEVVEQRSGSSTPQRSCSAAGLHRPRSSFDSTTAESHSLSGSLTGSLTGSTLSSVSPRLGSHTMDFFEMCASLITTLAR
In test [7] the target is T3, Non-receptor tyrosine-protein kinase TNK1 (Homo sapiens) (UniProt Q13470).
T3 sequence (whole entry): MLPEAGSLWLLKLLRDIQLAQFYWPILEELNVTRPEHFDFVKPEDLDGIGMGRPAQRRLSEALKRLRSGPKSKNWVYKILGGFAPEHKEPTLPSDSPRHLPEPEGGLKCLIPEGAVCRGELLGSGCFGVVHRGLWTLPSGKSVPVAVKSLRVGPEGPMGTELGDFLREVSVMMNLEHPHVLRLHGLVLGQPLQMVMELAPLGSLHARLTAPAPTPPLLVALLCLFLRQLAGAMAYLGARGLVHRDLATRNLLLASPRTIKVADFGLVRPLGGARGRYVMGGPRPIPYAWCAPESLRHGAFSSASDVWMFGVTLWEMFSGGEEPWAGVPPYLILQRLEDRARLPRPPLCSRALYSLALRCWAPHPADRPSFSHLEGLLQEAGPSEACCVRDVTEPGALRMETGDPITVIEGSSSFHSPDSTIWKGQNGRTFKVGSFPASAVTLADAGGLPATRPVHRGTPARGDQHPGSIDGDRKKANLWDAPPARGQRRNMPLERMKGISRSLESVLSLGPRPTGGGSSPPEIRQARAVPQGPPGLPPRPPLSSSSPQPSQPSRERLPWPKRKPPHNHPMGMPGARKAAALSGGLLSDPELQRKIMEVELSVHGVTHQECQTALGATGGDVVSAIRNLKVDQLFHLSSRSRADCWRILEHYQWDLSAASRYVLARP
Nature of the test: Selectivity interaction (KinomeScan (DiscoverX)) EUB0000595a TNK1. As to conditions: at 10 µM.

Chain of Ribosomal protein S6 kinase beta-1 (P23443 whole entry): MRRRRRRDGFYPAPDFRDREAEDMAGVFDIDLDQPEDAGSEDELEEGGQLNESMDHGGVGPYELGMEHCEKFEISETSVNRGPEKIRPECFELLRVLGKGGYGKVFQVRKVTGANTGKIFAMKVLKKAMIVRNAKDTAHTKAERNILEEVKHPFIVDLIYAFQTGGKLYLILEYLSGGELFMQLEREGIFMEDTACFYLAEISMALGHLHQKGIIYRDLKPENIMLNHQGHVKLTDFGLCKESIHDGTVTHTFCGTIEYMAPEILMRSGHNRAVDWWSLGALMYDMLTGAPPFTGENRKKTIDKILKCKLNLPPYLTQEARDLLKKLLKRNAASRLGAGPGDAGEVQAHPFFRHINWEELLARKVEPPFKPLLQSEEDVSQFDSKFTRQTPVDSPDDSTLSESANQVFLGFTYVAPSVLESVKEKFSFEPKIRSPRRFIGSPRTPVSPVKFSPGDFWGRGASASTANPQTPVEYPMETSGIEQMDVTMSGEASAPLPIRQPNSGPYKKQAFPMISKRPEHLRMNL
Chain of Ephrin type-A receptor 2 (Homo sapiens) (P29317 whole entry): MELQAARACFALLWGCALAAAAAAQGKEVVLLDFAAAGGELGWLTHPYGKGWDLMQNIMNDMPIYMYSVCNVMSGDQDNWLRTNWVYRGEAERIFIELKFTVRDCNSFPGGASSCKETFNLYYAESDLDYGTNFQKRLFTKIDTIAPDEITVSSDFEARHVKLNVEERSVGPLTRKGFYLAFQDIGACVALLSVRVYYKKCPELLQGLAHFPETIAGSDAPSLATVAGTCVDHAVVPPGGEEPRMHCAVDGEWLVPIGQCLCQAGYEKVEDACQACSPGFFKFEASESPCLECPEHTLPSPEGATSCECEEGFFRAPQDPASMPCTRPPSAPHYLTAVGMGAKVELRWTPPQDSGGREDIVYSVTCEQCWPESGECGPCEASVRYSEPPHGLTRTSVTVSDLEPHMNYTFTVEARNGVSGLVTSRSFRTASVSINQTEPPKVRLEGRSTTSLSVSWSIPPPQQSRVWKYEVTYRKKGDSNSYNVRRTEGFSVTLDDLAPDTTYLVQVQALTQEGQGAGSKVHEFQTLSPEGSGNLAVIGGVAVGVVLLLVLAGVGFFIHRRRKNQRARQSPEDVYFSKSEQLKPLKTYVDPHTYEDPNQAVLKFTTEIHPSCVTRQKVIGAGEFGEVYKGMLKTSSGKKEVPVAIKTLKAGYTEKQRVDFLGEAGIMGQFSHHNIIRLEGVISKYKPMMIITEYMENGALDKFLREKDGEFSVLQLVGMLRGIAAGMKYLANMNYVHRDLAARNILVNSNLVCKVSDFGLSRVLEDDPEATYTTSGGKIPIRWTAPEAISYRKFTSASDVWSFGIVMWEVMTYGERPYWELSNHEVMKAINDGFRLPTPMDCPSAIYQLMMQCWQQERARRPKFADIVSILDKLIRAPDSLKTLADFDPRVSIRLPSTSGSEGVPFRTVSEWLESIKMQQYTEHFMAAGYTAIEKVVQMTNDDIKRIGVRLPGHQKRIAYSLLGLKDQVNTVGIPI
Chain of Ribosomal protein S6 kinase alpha-2 (Homo sapiens) (Q15349 whole entry): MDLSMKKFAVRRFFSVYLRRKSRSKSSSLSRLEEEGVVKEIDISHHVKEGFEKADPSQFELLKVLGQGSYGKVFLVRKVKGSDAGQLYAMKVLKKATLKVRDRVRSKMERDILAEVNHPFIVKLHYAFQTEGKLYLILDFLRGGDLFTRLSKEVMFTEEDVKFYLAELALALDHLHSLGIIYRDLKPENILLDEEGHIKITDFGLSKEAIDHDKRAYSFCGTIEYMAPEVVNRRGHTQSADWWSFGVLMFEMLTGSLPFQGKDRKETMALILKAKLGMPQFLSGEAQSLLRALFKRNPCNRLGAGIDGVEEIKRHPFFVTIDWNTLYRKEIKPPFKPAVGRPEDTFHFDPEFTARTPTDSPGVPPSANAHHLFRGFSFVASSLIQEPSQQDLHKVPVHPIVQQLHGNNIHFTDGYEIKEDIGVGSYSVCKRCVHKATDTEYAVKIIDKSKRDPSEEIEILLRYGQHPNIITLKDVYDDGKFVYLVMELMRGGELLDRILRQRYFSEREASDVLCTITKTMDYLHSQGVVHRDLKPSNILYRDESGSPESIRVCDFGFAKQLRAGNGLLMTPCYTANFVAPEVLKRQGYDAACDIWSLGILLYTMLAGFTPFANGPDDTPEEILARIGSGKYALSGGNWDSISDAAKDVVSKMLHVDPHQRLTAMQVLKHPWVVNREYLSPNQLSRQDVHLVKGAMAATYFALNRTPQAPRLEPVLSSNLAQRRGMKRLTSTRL

For `CNC(=O)Nc1ccc(-c2nc(N3CC4CCC(C3)O4)c3cnn(C4CCC5(CC4)OCCO5)c3n2)cc1`, the % of control in test [1] worked out at 93%.
`Cc1cc([C@@H](C)Nc2ccccc2C(=O)O)c2nc(N3CCOCC3)cc(=O)n2c1` [AZD-6482]: the % of control in test [2] was determined as 100%.
`CCc1cc(Nc2nccc(-c3c(-c4ccc(OC)c(C(=O)Nc5c(F)cccc5F)c4)nc4ccccn34)n2)c(OC)cc1N1CCC(N2CCN(S(C)(=O)=O)CC2)CC1` registered a half-inhibitory concentration (IC50) in test [3] of more than 10 µM.
In the case of `CC[C@@H]1[C@H](F)C(=O)N[C@@H]1COc1nccc2cc(C(N)=O)c(OC)cc12` [ZIMLOVISERTIB], the % of inhibition was -3.9% in test [4] (at 0.01 µM); -40.1% in test [4] (at 0.04 µM); -48.3% in test [4] (at 0.2 µM); -34.8% in test [4] (at 1 µM); -22.6% in test [4] (at 5 µM).
Molecule `CC(=O)Nc1cccc(-n2c(=O)n(C3CC3)c(=O)c3c(Nc4ccc(I)cc4F)n(C)c(=O)c(C)c32)c1` displayed a % of control in test [5] of 93%.
Turning to `COc1cc(Nc2nc(C)cc(-c3cnn4nc(OC)ccc34)n2)cc(C(F)(F)F)c1`, the % of control in test [6] worked out at 100%.
In turn, `COCC(=O)NC/C=C/c1ccc2ncnc(Nc3ccc(Oc4ccc(C)nc4)c(C)c3)c2c1` [CP-724714] yielded a % of control in test [7] of 86%.

A word on the IC50: it is the point on the concentration scale where inhibition reaches its midpoint. High values mean weaker potency in that assay, low ones greater potency in that assay.
